From patent US20250205339A1, “FORMULATION HAVING IMPROVED ABSORBABILITY OF LOW-SOLUBLE AND/OR LOW-MEMBRANE-PERMEABLE DRUG” (MEDRx Co., Ltd., priority 2022, published 2025)
In brackets after ≈: the same amount, converted by molar mass. Where two headings read alike, the source gives them in different places.

Columns and labels:
Caco-2 cells [1] = system: Caco-2 cells
Caco-2 cells [2] = system: Caco-2 cells; remark: listed apart in the source
[3] = Parallel Artificial Membrane Permeation Assay (PAMPA); assay type: in vitro ADME; conditions: Examples 3 and 4, FIG. 1-3; isostearic acid-DODMA, isostearic acid-DODAP, oleic acid-DODMA (5 mM each ingredient); control PBS
Experimental: In this assay, VZ185 and BI-3663 were used as a drug with low solubility and/or low permeability, and isostearic acid-DODMA, isostearic acid-DODAP and oleic acid-DODMA were used as an ionic liquid. As the control, PBS was used.
Specifically, the permeability of the drugs was evaluated by Parallel Artificial Membrane Permeability Assay-Skin Kit (BioAssay Systems) according to the following procedures. • (1) Preparation of Phosphate Buffer Solution (PBS)
One tablet of Phosphate Buffered Saline Tablet (Sigma) was dissolved in 200 mL of water to prepare PBS. • (2) Preparation of Sample Solution
Also, PBS (475 μL) was mixed with 1 mg/mL of VZ185 solution (25 μL) to prepare 50 μg/mL of a drug-control solution as the control.
4% Lecithin/dodecane solution (5 μL) was then added into each donor well and allowed to stand. PBS (300 μL) was added into each acceptor well and 50 μg/mL of the drug-ionic liquid composition (200 μL) was added into each donor well, and the mixture was incubated in a thermostatic bath at 37° C. […] The sample solution of BI-3663 was prepared according to the same procedure.

[4] = cited from earlier work
Caco-2 cells [5] = system: Caco-2 cells; remark: listed apart in the source
Experimental: In order to study an ionic liquid for enhancing the intestinal absorption effect of a drug with low solubility and/or low permeability, various types of ionic liquids were prepared and the permeability of a drug with low solubility and/or low permeability in compositions comprising the prepared ionic liquid and the drug was evaluated. Specifically, the permeability of a drug was evaluated by the Caco-2 cell membrane permeation assay according to the following procedures for compositions comprising VZ185, which is PROTAC, used as a model drug with low solubility and/or low permeability and each ionic liquid.
Sodium hydroxide (0.4 g) was dissolved in water (100 mL) to prepare 0.1N NaOH solution. MES (2-morpholinoethanesulfonic acid, 1.493 g) and D-glucose (2.453 g) were dissolved in HBSS (+) (free of phenol red) (600 mL), the solution was adjusted to pH 6.5 with 0.1N NaOH solution, and then HBSS (+) (free of phenol red) was further added and adjusted to 700 mL. The solution was sterilized by filtration through 0.22 μm membrane filter to prepare Transport Buffer (A).
HEPES (1.192 g), D-glucose (1.752 g) and BSA (1.25 g) were then dissolved in HBSS (+) (free of phenol red) (400 mL), the solution was adjusted to pH 7.4 with 0.1N NaOH solution, and then HBSS (+) (free of phenol red) was further added and adjusted to 500 mL. The solution was sterilized by filtration through 0.22 μm membrane filter to prepare Transport Buffer (B). • (2) Preparation of Sample Solution
VZ185 (1.5 mg) was mixed with 1% TWEEN 80 (1.5 mL) to 1 mg/ml of VZ185 solution. Each organic acid (0.05 mmol) which is an anion ingredient and each cationic lipid (0.05 mmol) which is a cation ingredient were mixed with Transport Buffer (A) (4.98 mL) to prepare an ionic liquid composition comprising 10 mM each of the ingredients.
1 mg/mL of VZ185 solution (25 μL) and the ionic liquid composition or control composition (475 μL) were mixed to prepare 50 μg/mL of a drug-ionic liquid composition or a drug-control composition. […]

Caco-2 cells [6] = test: Cell membrane integrity by Trans-Epithelial Electrical Resistance (TEER); conditions: Example 1; Caco-2 monolayer exposed to VZ185 50 μg/mL with 10 mM ionic liquid or control composition (5 mM where labelled); standard value >1000Ω
Caco-2 cells [7] = test: Cell membrane integrity by permeability of Lucifer Yellow; conditions: Example 1; after VZ185 permeation test with 10 mM ionic liquid or control composition (5 mM where labelled); 60 min; standard value <1%

Oleic acid-Arginine
TEER (Caco-2 cells [1]): 3560 Ω | Lucifer Yellow (%) (Caco-2 cells [2]): 0.1%

CC(O)C(=O)O (stereo not shown) [Lactic acid, lactic acid]
TEER (Caco-2 cells [1]; human, 10 mM): 550 Ω

COc1cc(C(=O)NCCOCCOCCOCCC(=O)Nc2cccc3c2C(=O)N(C2CCC(=O)NC2=O)C3=O)ccc1Nc1ncc(C(F)(F)F)c(Oc2cccc3c2C(=O)CC3)n1 (stereo not shown) [BI-3663]
absorbability of the drug by the PAMPA with ionic liquids [3]: remarkably improved | Solubility [4]: <0.001 mg/mL | absorbability of BI-3663 by use of the ionic liquids (Caco-2 cells [5]): remarkably improved

Oleic acid-Trometamol
TEER (Caco-2 cells [1]): 4750 Ω | Lucifer Yellow (%) (Caco-2 cells [2]): 0.1%

CCCCCCCC/C=C\CCCCCCCC(=O)[O-].[Na+] [Sodium oleate, sodium oleate]
TEER (Caco-2 cells [6]): 100 Ω

c1ccc(-c2ccc(C(c3ccccc3)n3ccnc3)cc2)cc1 (stereo not shown) [bifonazole]
absorbability of the drug by the PAMPA with ionic liquids [3]: remarkably improved | absorbability of bifonazole by use of the ionic liquid (Caco-2 cells [5]): remarkably improved

COc1cc(-c2cn(C)c(=O)c3cnccc23)cc(OC)c1CN1CCN(CCCCCOc2cc(-c3scnc3C)ccc2CNC(=O)[C@@H]2C[C@@H](O)CN2C(=O)[C@@H](NC(=O)C2(F)CC2)C(C)(C)C)CC1 [VZ185]
absorbability of the drug by the PAMPA with ionic liquids [3]: remarkably improved | Solubility [4]: 0.085 mg/mL (≈ 85.4 µM) | absorbability of VZ185 by use of the ionic liquids (Caco-2 cells [5]): remarkably improved

O=C([O-])CCCCCCCNC(=O)c1ccccc1O.[Na+] [SNAC, salcaprozate sodium]
Lucifer Yellow (%) (Caco-2 cells [7]): 4.3% | TEER (Caco-2 cells [6]): 210 Ω
